Each structure is given as a SMILES string.

The test system of the assay is NCI-H929 multiple myeloma cells. The assay is described as follows: Cell Titer-GLO (CTG) assay for proliferation of NCI-H929 cells. The assay is classed as cell-based. The settings on record: Homo sapiens, 72 hours. How it is done: 1. Experimental objective: To determine inhibitory activities of compounds on NCI-H929 multiple myeloma cells.
NCI-H929 cells, purchased from Nanjing Cobioer Biotechnology Co., Ltd, were cultured in RPM11640 (Viva; C3010-0500) medium containing 10% fetal bovine serum (Viva, C04002-500) and 1% of penicillin-streptomycin at 37° C. with 5% of C02 and saturated humidity conditions.
The cells in logarithmic growth phase were plated at 5000 cells per well of a 96-well plate and after overnight incubation, compounds at 0.00512 nM, 0.0256 nM, 0.128 nM, 0.64 nM, 3.2 nM, 16 nM, 80 nM, and 400 nM were dosed into the plate with each dose in 2 duplicate wells. Cells were incubated at 37° C., 5% CO2 for 72 hours. After the incubation, the plate was placed at room temperature for half an hour, and then 50 μL of Cell Titer-Glo® (Promega, G7573) was added. The plate was placed on a shaker for uniform mixing for 2 minutes and was placed in the dark at room temperature for 10 minutes. The luminance signal was measured using SpectraMax Paradigm (Molecular Devices).
Cell activity inhibition rate (%)=1 00−(RLUcompound−RLUblank)/(RLUcontrol−RLUblank)×100%, where control refers to the 0.1% DMSO treatment group, and blank refers to the culture medium control. IC50 values and maximum inhibition rates of the compounds were calculated using a nonlinear regression function “Dose-Response-Inhibition” in Graphpad Prism 7.0.
With `O=C1CCC(N2C(=O)c3cccc4c(Cc5ccc(CN6CCN(c7cccc(-n8ccnc8)n7)CC6)cc5)ccc2c34)C(=O)N1` (centres unmarked) [Example 2, 3-(6-(4-((4-(6-(1H-imidazol-1-yl)pyridin-2-yl)piperazin-1-vi)methyl)benzyl)-2-oxobenzo[cd]indol-1(2H)-yl)piperidin-2,6-dione], the midpoint of inhibition, the IC50, lay at 0.02 nM.

`O=C1CCC(N2C(=O)c3cccc4c(Cc5ccc(CN6CCC(NC(=O)c7ccnc(-n8ccnc8)n7)CC6)cc5)ccc2c34)C(=O)N1` (centres unmarked) [Example 7, N-(1-(4-((1-(2,6-dioxopiperidin-3-yl)-2-oxo-1,2-dihydrobenzo[cd]indol-6-yl)methyl)benzyl)piperidin-4-yl)-2-(1H-imidazol-1-yl)pyrimidin-4-carboxamide]: the IC50 was 0.05 nM.

The molecule `NC(=O)c1cn(-c2cccc(N3CCN(Cc4ccc(COc5cccc6c5CN([C@H]5CCC(=O)NC5=O)C6=O)cc4)CC3)n2)cn1` [Example 57, (S)-1-(6-(4-(4-(((2-(2,6-dioxopiperidin-3-yl)-1-oxoisoindolin-4-yl)oxy)methyl)benzyl)piperazin-1-yl)pyridin-2-yl)-1H-imidazol-4-carboxamide] showed an IC50 of 0.1 nM. Compared with the last molecule, the IC50 is about 2-fold higher.

As to `Cc1cc(N2CCN(Cc3ccc(Cc4ccc5c6c(cccc46)C(=O)N5C4CCC(=O)NC4=O)cc3)CC2)nc(-n2ccnc2)n1` (centres unmarked) [Example 10, 3-(6-(4-((4-(2-(1H-imidazol-1-yl)-6-methylpyrimidin-4-yl)piperazin-1-yl)methyl)benzyl)-2-oxobenzo[cd]indol-1(2H)-yl)piperidin-2,6-dione], half-maximal inhibition (IC50) required 0.03 nM.

On to `O=C1CCC(N2C(=O)c3cccc4c(Cc5ccc(CN6CCN(C7CCN(c8ccnc(-n9cnc(C(F)(F)F)c9)n8)CC7)CC6)cc5)ccc2c34)C(=O)N1` (centres unmarked) [Example 40, 3-(2-oxo-6-(4-((4-(1-(2-(4-(trifluoromethyl)-1H-imidazol-1-yl)pyrimidin-4-yl)piperidin-4-yl)piperazin-1-yl)methyl)benzyl)benzo[cd]indol-1(2H)-yl)piperidin-2,6-dione], for which the concentration for half-maximal inhibition (IC50) is 0.01 nM.

On to `Cc1nnc(-c2cccc(N3CCN(Cc4ccc(Cc5ccc6c7c(cccc57)C(=O)N6[C@H]5CCC(=O)NC5=O)cc4)CC3)n2)s1` [Example 35, (S)-3-(6-(4-((4-(6-(5-methyl-1,3,4-thiadiazol-2-yl)pyridin-2-yl)piperazin-1-yl)methyl)benzyl)-2-oxobenzo[cd]indol-1(2H)-yl)piperidin-2,6-dione], for which the midpoint of inhibition, the IC50, lay at 0.01 nM.

Molecule `Cc1ncn(-c2ncc(Cl)c(N3CCN(Cc4ccc(Cc5ccc6c7c(cccc57)C(=O)N6C5CCC(=O)NC5=O)cc4)CC3)n2)n1` (centres unmarked) [Example 45, 3-(6-(4-((4-(5-chloro-2-(3-methyl-1H-1,2,4-triazol-1-yl)pyrimidin-4-yl)piperazin-1-yl)methyl)benzyl)-2-oxobenzo[cd]indol-1(2H)-yl)piperidin-2,6-dione] displayed an IC50 of 0.01 nM.

In turn, `O=C1CCC(N2C(=O)c3cccc4c(Cc5ccc(CN6CCN(c7ccnc(-c8cncs8)n7)CC6)cc5)ccc2c34)C(=O)N1` (centres unmarked) [Example 58, 3-(2-oxo-6-(4-((4-(2-(thiazol-5-yl)pyrimidin-4-yl)piperazin-1-yl)methyl)benzyl)benzo[fcd]indol-1(2H)-yl)piperidin-2,6-dione] had an IC50 of 0.03 nM.

`O=C1CCC(N2C(=O)c3cccc4c(Cc5ccc(CN6CCN(c7ccnc(-c8cccnc8)n7)CC6)cc5)ccc2c34)C(=O)N1` (centres unmarked) [Example 64, 3-(2-oxo-6-(4-((4-(2-(pyridin-3-yl)pyrimidin-4-yl)piperazin-1-yl)methyl)benzyl)benzo[cd]indol-1(2H)-yl)piperidin-2,6-dione] showed an IC50 of 0.02 nM. Compared with the last molecule, the IC50 is about 1.5-fold lower.

In turn, `O=C1CCC(N2C(=O)c3cccc4c(Cc5ccc(CN6CCC(NC(=O)c7cccc(-n8ccnc8)n7)CC6)cc5)ccc2c34)C(=O)N1` (centres unmarked) [Example 6, N-(1-(4-((1-(2,6-dioxopiperidin-3-yl)-2-oxo-1,2-dihydrobenzo[cd]indol-6-yl)methyl)benzyl)piperidin-4-yl)-6-(1H-imidazol-1-yl)pyridin-2-carboxamide] yielded an IC50 of 0.07 nM. Against the preceding molecule, the IC50 is about 3.5-fold higher.

`Cc1nc(N2CCN(C3CN(Cc4ccc(Cc5ccc6c7c(cccc57)C(=O)N6C5CCC(=O)NC5=O)cc4)C3)CC2)cc(-n2cnc(C(F)(F)F)c2)n1` (centres unmarked) [Example 54, 3-(6-(4-((3-(4-(2-methyl-6-(4-(trifluoromethyl)-1H-imidazol-1-yl)pyrimidin-4-yl)piperazin-1-yl)azetidin-1-yl)methyl)benzyl)-2-oxobenzo[cd]indol-1(2H)-yl)piperidin-2,6-dione] yielded an IC50 of 0.004 nM.

As to `Cc1nc(N2CCN(Cc3ccc(Cc4ccc5c6c(cccc46)C(=O)N5C4CCC(=O)NC4=O)cc3)CC2)cc(-n2cnc(C)n2)n1` (single isomer, unassigned) [Example 47], the IC50 is 0.02 nM. This IC50 is about 5-fold higher than that of the molecule before.

Molecule `Cc1noc(C)c1-c1nccc(N2CCN(Cc3ccc(Cc4ccc5c6c(cccc46)C(=O)N5C4CCC(=O)NC4=O)cc3)CC2)n1` (centres unmarked) [Example 65, 3-(6-(4-((4-(2-(3,5-dimethylisoxazol-4-yl)pyrimidin-4-yl)piperazin-1-yl)methyl)benzyl)-2-oxobenzo[cd]indol-1(2H)-yl)piperidin-2,6-dione] registered an IC50 of 0.03 nM.

With `O=C1CC[C@@H](N2C(=O)c3cccc4c(Cc5ccc(CN6CCN(c7ccnc(-n8cnc(C(F)(F)F)c8)n7)CC6)cc5)ccc2c34)C(=O)N1` [Example 34, (R)-3-(2-oxo-6-(4-((4-(2-(4-(trifluoromethyl)-1H-imidazol-1-yl)pyrimidin-4-yl)piperazin-1-yl)methyl)benzyl)benzo[cd]indol-1(2H)-yl)piperidin-2,6-dione], 0.03 nM corresponded to half-maximal inhibition (IC50).

The molecule `O=C1CCC(N2C(=O)c3cccc4c(Cc5ccc(CN6CCN(c7ccnc(-n8cnc(C(F)(F)F)n8)n7)CC6)cc5)ccc2c34)C(=O)N1` (centres unmarked) [Example 39, 3-(2-oxo-6-(4-((4-(2-(3-(trifluoromethyl)-1H-1,2,4-triazol-1-yl)pyrimidin-4-yl)piperazin-1-yl)methyl)benzyl)benzo[cd]indol-1(2H)-yl)piperidin-2,6-dione] displayed an IC50 of 0.01 nM.

`O=C1CC[C@H](N2C(=O)c3cccc4c(Cc5ccc(CN6CCN(c7ccnc(-n8cnc(C(F)(F)F)c8)n7)CC6)cc5)ccc2c34)C(=O)N1` [Example 33, (S)-3-(2-oxo-6-(4-((4-(2-(4-(trifluoromethyl)-1H-imidazol-1-yl)pyrimidin-4-yl)piperazin-1-yl)methyl)benzyl)benzo[cd]indol-1(2H)-yl)piperidin-2,6-dione] had an IC50 of 0.02 nM.

For `Cc1ncn(-c2nc(N3CCN(C4CN(Cc5ccc(Cc6ccc7c8c(cccc68)C(=O)N7C6CCC(=O)NC6=O)cc5)C4)CC3)cc(C(F)(F)F)n2)n1` (centres unmarked) [Example 52, 3-(6-(4-((3-(4-(2-(3-methyl-1H-1,2,4-triazol-1-yl)-6-(trifluoromethyl)pyrimidin-4-yl)piperazin-1-yl)azetidin-1-yl)methyl)benzyl)-2-oxobenzo[cd]indol-1(2H)-yl)piperidin-2,6-dione], the concentration for half-maximal inhibition (IC50) stood at 0.01 nM.

`[2H]C([2H])(c1ccc(Cc2ccc3c4c(cccc24)C(=O)N3C2CCC(=O)NC2=O)cc1)N1CCN(c2cc(-n3cnc(C(F)(F)F)c3)nc(C)n2)CC1` (centres unmarked) [Example 82, 3-(6-(4-((4-(2-methyl-6-(4-(trifluoromethyl)-1H-imidazol-1-yl)pyrimidin-4-yl)piperazin-1-yl)methyl-d2)benzyl)-2-oxobenzo[cd]indol-1(2H)-yl)piperidin-2,6-dione] yielded a 50% inhibitory concentration (IC50) of 0.02 nM.

Consider `CC(C)N1CCN=C1c1cccc(N2CCN(Cc3ccc(Cc4ccc5c6c(cccc46)C(=O)N5C4CCC(=O)NC4=O)cc3)CC2)n1` (centres unmarked) [Example 79, 3-(6-(4-((4-(6-(1-isopropyl-4,5-dihydro-1H-imidazol-2-yl)pyridin-2-yl)piperazin-1-yl)methyl)benzyl)-2-oxobenzo[cd]indol-1(2H)-yl)piperidin-2,6-dione], for which the IC50 was found to be 1.6 nM.

Consider `O=C1CCC(N2C(=O)c3cccc4c(Cc5ccc(CN6CCN(c7cc(C(F)(F)F)nc(-c8cncs8)n7)CC6)cc5)ccc2c34)C(=O)N1` (centres unmarked) [Example 59, 3-(2-oxo-6-(4-((4-(2-(thiazol-5-yl)-6-(trifluoromethyl)pyrimidin-4-yl)piperazin-1-yl)methyl)benzyl)benzo[cd]indol-1(2H)-yl)piperidin-2,6-dione], for which the IC50 stood at 0.2 nM.

Regarding `CC(C)n1cnnc1-c1cccc(N2CCN(Cc3ccc(Cc4ccc5c6c(cccc46)C(=O)N5C4CCC(=O)NC4=O)cc3)CC2)n1` (centres unmarked) [Example 24, 3-(6-(4-((4-(6-(4-isopropyl-4H-1,2,4-triazol-3-yl)pyridin-2-yl)piperazin-1-yl)methyl)benzyl)-2-oxobenzo[cd]indol-1(2H)-yl)piperidin-2,6-dione], half-maximal inhibition (IC50) was put at 0.1 nM.

`Cc1cc(C(=O)NC2CCN(Cc3ccc(Cc4ccc5c6c(cccc46)C(=O)N5C4CCC(=O)NC4=O)cc3)CC2)nc(-n2ccnc2)n1` (centres unmarked) [Example 12, N-(1-(4-((1-(2,6-dioxopiperidin-3-yl)-2-oxo-1,2-dihydrobenzo[cd]indol-6-yl)methyl)benzyl)piperidin-4-yl)-2-(1H-imidazol-1-yl)-6-methylpyrimidin-4-carboxamide] had an IC50 of 0.07 nM.

Molecule `Cc1nc(N2CCN(Cc3ccc(Cc4ccc5c6c(cccc46)C(=O)N5C4CCC(=O)NC4=O)cc3)CC2)cc(-n2ncc(C(F)(F)F)n2)n1` (centres unmarked) [Example 76, 3-(6-(4-((4-(2-methyl-6-(4-(trifluoromethyl)-2H-1,2,3-triazol-2-yl)pyrimidin-4-yl)piperazin-1-yl)methyl)benzyl)-2-oxobenzo[cd]indol-1(2H)-yl)piperidin-2,6-dione] came in with an IC50 of 0.1 nM. The IC50 values of the last two molecules are within 1.5-fold of each other.

For the origin of these results see patent US20260272924A1, “ISOINDOLINE DERIVATIVE, BENZOINDOLE DERIVATIVE AND USE THEREOF” (SHANGHAI HELIOSON PHARMACEUTICAL CO., LTD., priority 2023, published 2026).
